This passage reports solubility, ED50 and Activity results from ChEMBL document CHEMBL1143970, “Structure-activity relationships and CoMFA of N-3 substituted phenoxypropyl piperidine benzimidazol-2-one analogues as NOP receptor agonists with analgesic properties” (Bioorg Med Chem, 2008).

Values after ≈ are worked out from the molar mass of the structure shown.

A short description of series [1]: Solubility of the compound. The series is classed as physicochemical.
The test system of series [2] is Rattus norvegicus. Nature of the series: Effect on mechanically-induced allodynia in iv dosed Wistar rat after 2 hrs by Brennan test. The series is classed as functional.
In series [3] the test system is Rattus norvegicus. The series is described as follows: Reversal of mechanically-induced allodynia in Wistar rat at 30 umol/kg, iv after 2 hrs by Brennan test. The series is classed as functional.

As to `COc1ccc(C)c(OC(CCN2CCC(n3c(=O)n(Cc4c[nH]cn4)c4ccccc43)CC2)C(C)C)c1` (centres undefined), the concentration in solution in series [1] (solubility) came to 200 µg/mL (≈ 386 µM).
In turn, `COc1ccc(C)c(OC(CCN2CCC(n3c(=O)n(Cc4ncn[nH]4)c4ccccc43)CC2)C(C)C)c1` (centres undefined) came in with a 50% effective dose (ED50) in the series with Rattus norvegicus [2] of 12.1 µmol/kg. In the series on Rattus norvegicus [3], the Activity is listed as 100%.
`COc1ccc(C)c(OC(CCN2CCC(n3c(=O)n(Cc4ncn[nH]4)c4ccccc43)CC2)C(C)C)c1.Cl` (single isomer, unassigned; (+)) returned a solubility in series [1] of 4 µg/mL.

Usually solubility stands for the dissolved amount per volume that the medium holds. High values mean much dissolved substance, low ones little dissolved substance. One may read the ED50 as the midpoint of the dose-response relation. Read a low ED50 as greater potency.
